# Results reported in patent US11274082B2, “Tead inhibitors and uses thereof” (Ikena Oncology, Inc., priority 2019, dated 2022).
# Like-named read-outs stand apart in the source and are kept apart here.
# Tests used:
# [1] = system: TEAD; test: TEAD reporter assay (Hippo Pathway TEAD Reporter - MCF7 cell line, luciferase); type: cell-based; conditions: Homo sapiens
# Excerpt: TEAD inhibition can be assayed using Hippo Pathway TEAD Reporter—MCF7 Cell Line (BPS Bioscience, Catalog #: 60618).
# The TEAD Reporter—MCF7 cell line contains the firefly luciferase gene under the control of TEAD responsive elements stably integrated into the human breast cancer cell line, MCF7. Inside the cells, basal unphosphorylated YAP/TAZ remains in the nucleus and induces the constitutive expression of luciferase reporter. The cell line is validated for the inhibition of the expression of luciferase reporter by the activators of the Hippo pathway.
# • 1) Harvest TEAD Reporter—MCF7 cells from culture in growth medium and seed cells at a density of 35,000 cells per well into white clear-bottom 96-well microplate in 45 μl of assay medium. • 2) Incubate cells at 37° C. in a CO2 incubator for overnight. • 3) Dilute the activators (H2O2 or okadaic acid) stock in assay medium. Add 5 μl of diluted activators to the wells. The final concentration of DMSO in assay medium is 0.1%. • 4) Add 5 μl of assay medium with same concentration of DMSO without activator to control wells. • 5) Add 50 μl of assay medium with DMSO to cell-free control wells (for determining background luminescence). • 6) Set up each treatment in at least triplicate. • 7) Incubate cells at 37° C. in a CO2 incubator for 5-6 hours. • 8) Perform luciferase assay using the ONE-Step™ Luciferase Assay System following the protocol provided: Add 100 μl of ONE-Step™ Luciferase reagent per well and rock at room temperature for ˜15 minutes. Measure luminescence using a luminometer. • 9) Data Analysis: Obtain the background-subtracted luminescence by subtracting the average background luminescence (cell-free control wells) from the luminescence reading of all wells.
# (§1) Certain compounds were tested in TEAD reporter assay, and in H226 and H28. A: EC50<0.1 uM; B: 0.1 uM≤EC50≤0.5 uM; C: EC50>0.5 uM.
# [2] = system: H226; test: Anti-proliferation assay in H226 cells; type: cell-based; conditions: Homo sapiens
# Description: as §1
# (§2) Individual cell lines were grown in medium according to supplier instructions and seeded into 96-well plates at a density that ensured logarithmic growth over 72 hours. TEAD inhibitor compounds were administered to cells at a top concentration of 10 μm and subsequently a 10 point 3-fold serial dilution was conducted. After 72 hours, proliferation was quantified using Cell TITERGLO™ (Promega, Inc.) and compared to vehicle control. IC50 and EC50 values were generated using XLFit curve fitting software.
# [3] = system: H28; test: Anti-proliferation assay in H28 cells; type: cell-based; conditions: Homo sapiens, NCI-H28
# Description: as §1, §2
# [4] = Mouse pharmacokinetics study; type: in vivo; conditions: BALB/c mice, 10 mg/kg by oral gavage in 5% DMS/95% PEG400, plasma
# Description: Formulated compounds were administered intravenously or orally via gavage to BALB/c mice. Typically, at 0.167, 0.5, 1, 2, 4, 6, 12, and 24 hours post-dose, blood was collected and processed to plasma by centrifugation and stored at −80° C. until analysis. Internal standard was added to each sample prior to protein precipitation with acetonitrile or TCA. The precipitates were filtered through a filter plate and the samples were analyzed by LC/MS/MS. A standard curve was prepared in plasma from typically from 1.0 ng/mL to 3000 ng/mL and processed in the same manner as the samples. Sample analysis was typically performed on a suitable LC/MS/MS system fitted with an analytical UPLC column and compounds eluted from the analytical column with a gradient from 30-95% 0.1% formic acid (v/v) in ACN: 0.1% formic acid (v/v) in water. Mass spectrometric detection of test compound and the internal standard was performed by MRM in positive mode. The pharmacokinetics of each compound were analyzed by Phoenix WinNonlin software (Pharsight, St. Louis, Mo.) via noncompartmental analysis.
# [5] = TEAD Reporter - MCF7 cells, read-out: TEAD Reporter Assay EC50
# [6] = NCI-H226, H226 cells, read-out: H226 EC50
"EC50 [1, 5] [µM]","EC50 [2, 6] [µM]",AUC(0-t) [4] [ng·h/mL],Cmax [4] [ng/mL],SMILES,EC50 [3] [nM],"EC50 ([1]; MCF7, read-out: TEAD Reporter Assay EC50 (uM)) [µM]","EC50 ([2]; NCI-H226, read-out: H226 EC50 (uM)) [µM]"
> 0.5,> 0.5,,,"Cn1nnc(-c2cc(B(O)O)ccc2Nc2cccc(C(F)(F)F)c2)n1 [I-17, [3-(2-methyltetrazol-5-yl)-4-[3-(trifluoromethyl)anilino]phenyl]boronic acid]",> 500,,
< 0.1,< 0.1,2250,1040,"CNS(=O)(=O)c1ccc(NCc2ccccc2)c(-c2cn(C)cn2)c1 [I-27, 4-(Benzylamino)-N-methyl-3-(1-methylimidazol-4-yl)benzenesulfonamide]",> 500,,
,,2330,558,CNS(=O)(=O)c1ccc(Nc2cccc(C(F)(F)F)c2)c(-c2cn(C)cn2)c1 [P-12],,,
< 0.1,< 0.1,25900,1620,"CNS(=O)(=O)c1ccc(Nc2ccc(C(F)(F)F)cn2)c(-c2cn(C)cn2)c1 [I-38, N-Methyl-3-(1-methylimidazol-4-yl)-4-[[5-(trifluoromethyl)-2-pyridyl]amino]benzenesulfonamide]",,,
< 0.1,< 0.1,521,351,"CCNS(=O)(=O)c1ccc(Nc2cc(C(F)(F)F)ccn2)c(-c2cn(C)cn2)c1 [I-37, N-Ethyl-3-(1-methylimidazol-4-yl)-4-[[4-(trifluoromethyl)-2-pyridyl]amino]benzenesulfonamide]",,,
,,622,210,CNS(=O)(=O)c1ccc(Nc2cccc(C(F)(F)F)c2)c(-c2nnn(C)n2)c1 [P-14],,,
< 0.1,< 0.1,731,420,"CNS(=O)(=O)c1ccc(Nc2cc(C(F)(F)F)ccn2)c(-c2cn(C)cn2)c1 [I-33, N-Methyl-3-(1-methylimidazol-4-yl)-4-[[4-(trifluoromethyl)-2-pyridyl]amino]benzenesulfonamide]",,,
0.1 to 0.5,> 0.5,,,"CNS(=O)(=O)c1ccc(NCc2ccccc2)c(-c2nnn(C)n2)c1 [I-16, 4-(benzylamino)-N-methyl-3-(2-methyltetrazol-5-yl)benzenesulfonamide]",> 500,,
< 0.1,< 0.1,2520,774,"CNS(=O)(=O)c1ccc(NCc2cccc(C(F)(F)F)c2)c(-c2cn(C)cn2)c1 [I-31, N-Methyl-3-(1-methyl-1H-imidazol-4-yl)-4-((3-(trifluoromethyl)benzyl)amino)benzenesulfonamide]",,,
< 0.1,< 0.1,887,882,"CNS(=O)(=O)c1ccc(N[C@H](C)c2ccccc2)c(-c2cn(C)cn2)c1 [I-30, N-Methyl-3-(1-methylimidazol-4-yl)-4-[[(1R)-1-phenylethyl]amino]benzenesulfonamide]",,,
< 0.1,< 0.1,4580,1090,"CNS(=O)(=O)c1ccc(NCc2ccc(C(F)(F)F)cc2)c(-c2cn(C)cn2)c1 [I-32, N-Methyl-3-(1-methyl-1H-imidazol-4-yl)-4-((4-(trifluoromethyl)benzyl)amino)benzenesulfonamide]",,,
> 0.5,0.1 to 0.5,,,"CNS(=O)(=O)c1ccc(Nc2ccc(C(F)(F)F)nn2)c(-c2cn(C)cn2)c1 [I-77, N-Methyl-3-(1-methylimidazol-4-yl)-4-[[6-(trifluoromethyl)pyridazin-3-yl]amino]benzenesulfonamide]",,,
> 0.5,0.1 to 0.5,,,"CNS(=O)(=O)c1ccc(NCc2ccc3ncsc3c2)c(-c2cn(C)cn2)c1 [I-73, 4-(1,3-Benzothiazol-6-ylmethylamino)-N-methyl-3-(1-methylimidazol-4-yl)benzenesulfonamide]",,,

SMILES,"EC50 [1, 5] [µM]","EC50 [2, 6] [µM]",AUC(0-t) [4] [ng·h/mL],Cmax [4] [ng/mL],EC50 [3] [nM],"EC50 ([1]; MCF7, read-out: TEAD Reporter Assay EC50 (uM)) [µM]","EC50 ([2]; NCI-H226, read-out: H226 EC50 (uM)) [µM]"
"CNS(=O)(=O)c1cnc(Nc2cccc(C(F)(F)F)c2)c(-c2cn(C)cn2)c1 [I-36, N-Methyl-5-(1-methylimidazol-4-yl)-6-[3-(trifluoromethyl)anilino]pyridine-3-sulfonamide]",,,595,213,,< 0.1,< 0.1
